Several values for one entry are separate records, joined by “and”; a condition that tells them apart may be missing. Equal entries are not always repeated.
How the values were obtained:
[1] = test system: Normal Human Dermal Fibroblasts (NHDFs); experiment: qRT-PCR gene expression in Normal Human Dermal Fibroblasts; assay type: cell-based; details: 4 μM, 24 h
Description: The study consisted in measuring the effects of compound PAT1657 by qRT-PCR on the expression of 94 genes involved in dermal biology, connective tissue remodelling and ageing.
The protocol consisted in applying compound PAT1657 for 24 h in the culture medium of Normal Human Dermal Fibroblasts (NHDFs) in monolayer and analysing the various RNA populations to identify the genes differentially expressed by real-time qRT-PCR.
The study was carried out on Normal Human Dermal Fibroblasts (NHDFs) (ATCC, CRL-2522, origin: foreskin) at about 40% of their proliferative potential and grown in monolayer in DMEM medium (Invitrogen, 31885-049) containing antibiotics (penicillin/streptomycin, Invitrogen, 15140-122) but not containing serum. The cells were maintained in a humid atmosphere at 37° C. containing 5% CO2.
Compound PAT1657 was applied in the NHDF culture medium for 24 h (n=3). Controls treated with the solvent DMSO (1% for the NHDFs) in which the active agents were prepared were also analysed. At the end of the treatments, total RNA populations were extracted, their integrity was analysed by capillary electrophoresis, and gene expression differences were analysed by qRT-PCR using 96-well TaqMan microfluidic cards (custom produced by Applied Biosystems), targeting key functions of the dermis and epidermis. The technical details of the implementation of the present paragraph are explained in the “Materials and methods” section of Example 1 of patent application FR1650745 and more specifically the sub-section titled “Analysis of gene expression changes” (page 26 line 22 to page 28 line 9).
The gene expression changes induced by the active agents are expressed as relative quantity (RQ) based on the respective DMSO solvent controls.

[2] = test system: TNF-α; experiment: TNF-α production by NHEKs in the inflammatory state (PMA + calcium ionophore, 0.06 mM Ca2+), ELISA; assay type: cell-based, human; details: PMA + calcium ionophore A23187 24 h, compounds 50 μM, dexamethasone 10 μM, relative to induced control
Description: The study was carried out on Normal Human Epidermal Keratinocytes (NHEKs) (Lonza, CC-2507, origin: foreskin) in monolayer culture in Epilife medium (Invitrogen, M-EPI-500-A) containing the components of the Human Keratinocyte Growth Supplement (HKGS) mixture (Invitrogen, S-001-K) added separately, except hydrocortisone having anti-inflammatory properties.
For the quantification of IL-8 and PGE2, the inflammatory state of the NHEKs in culture was induced by treatment with PMA (phorbol myristate acetate/10 ng/ml/H2O) for 24 h. Induction of IL-6 was achieved by treatment with PMA (10 ng/ml/H2O) combined with calcium ionophore A23187 (2 μM/DMSO) in medium containing calcium at a concentration of 0.8 mM. […]
Quantification of the various inflammatory mediators was carried out with specific kits, based on a standard curve, according to the instructions provided by the kits' suppliers, R&D Systems and Cayman Chemical.
Before induction of the inflammatory state, the NHEKs were treated with the compounds and reference molecules for 2 h. The inflammatory state was then induced according to the conditions described in the methodology section, the culture supernatants were collected, and the various inflammatory mediators were quantified by the ELISA technique. […]

CCCCCCCCNC(=O)[C@]1(O)C[C@@H](OC(=O)/C=C/c2ccc(O)c(O)c2)[C@@H](O)[C@H](OC(=O)/C=C/c2ccc(O)c(O)c2)C1 [PAT1657, (2E,2′E)-((1R,2S,3R,5S)-2,5-dihydroxy-5-(octylcarbamoyl)cyclohexane-1,3-diyl) bis(3-(3,4-dihydroxyphenyl)acrylate)]
expression of gene GSS ([1]; in words only): overexpressed | RQ (relative expression), gene CCL5 ([1]; relative to 1% DMSO vehicle): 28.13 | RQ (relative expression), gene DDIT3 ([1]; relative to 1% DMSO vehicle): 2.81 | RQ (relative expression), gene FTL ([1]; relative to 1% DMSO vehicle): 2.1 and 2.08 | RQ (relative expression), gene GADD45A ([1]; relative to 1% DMSO vehicle): 3.68 | RQ (relative expression), gene KLF4 ([1]; relative to 1% DMSO vehicle): 1.9 and 1.93 | RQ (relative expression), gene MMP1 ([1]; relative to 1% DMSO vehicle): 6.9 and 6.91 | RQ (relative expression), gene MMP3 ([1]; relative to 1% DMSO vehicle): 3.1 and 3.12 | RQ (relative expression), gene MTNR1A ([1]; relative to 1% DMSO vehicle): 1.46 | RQ (relative expression), gene NANOG ([1]; relative to 1% DMSO vehicle): 4.7 and 4.67 | RQ (relative expression), gene NOX1 ([1]; relative to 1% DMSO vehicle): 1.46 | RQ (relative expression), gene POU5F1 ([1]; relative to 1% DMSO vehicle): 5.1 | RQ (relative expression), gene RBP2 ([1]; relative to 1% DMSO vehicle): 1.46 | RQ (relative expression), gene RORA ([1]; relative to 1% DMSO vehicle): 4.4 and 4.41 | RQ (relative expression), gene SIRT1 ([1]; relative to 1% DMSO vehicle): 2.02 | RQ (relative expression), gene SOD2 ([1]; relative to 1% DMSO vehicle): 4.7 and 4.66 | RQ (relative expression), gene TXNRD1 ([1]; relative to 1% DMSO vehicle): 2.8 and 2.82 | RQ (relative expression), gene VEGFA ([1]; relative to 1% DMSO vehicle): 8.3 and 8.28 | TNF-α production [2]: most marked effects and are more effective than dexamethasone itself

— US10786690B2, “Amide derivatives of polycaffeoylquinic acids, process for producing same and uses thereof” (TEMISIS, priority 2016, dated 2020)
